Measurements from patent publication US4396550A, “Dibenz [b,e] oxepin derivatives” (Kyowa Hakko Kogyo Co., Ltd., priority 1980, dated 1983).

Assays:
male dd-strain rats = test: Acute toxicity test (minimum lethal dose); type: in vivo; details: mortality for 7 days
Description: Groups of male dd-strain rats (each group consisting of five rats) weighing 20±1 g were used. The compounds of the present invention were administered orally (po: 0.3 mg/g) or intraperitoneally (ip: 0.1 mg/g). The MLD (minimum lethal dose) was calculated from the mortality for 7 days after the administration to obtain the results given in Table 1.

[1] = system: blood platelets (platelet-rich plasma); test: Test for the inhibition of platelet aggregation (collagen-induced, platelet-rich plasma); type: cell-based, male white rabbits; details: Oryctolagus cuniculus, Platelet, 0.05 h; depressing ratio of 50% of collagen-induced aggregation; compound 3 minutes before; read-out: Antiplatelet aggregation activity: MED
Description: In this test, 9 vols. of blood are sampled from the caroted artery of male white rabbits weighing 2 to 2.5 kg and placed in a silicon-coated flask containing 1 vol. of 3.8% sodium citrate. The thus obtained blood is centrifuged at 1,000 rpm for 15 minutes to obtain platelet-rich plasma. The aggregation of the blood platelets is observed using an aggregometer, when collagen is added to the platelet-rich plasma to the extent of the final concentration that 50% of platelet aggregation is caused in the presence of 100 γ/ml of aspirin. On the other hand, 3 minutes after administration of the test compounds to the platelet-rich plasma, the same procedure as mentioned above is carried out to observe the aggregation of blood platelet. The test compounds showing a depressing ratio of 50%, compared with the inhibition of aggregation by collagen alone, are concluded to have antiplatelet aggregation activity.

[2] = system: isolated ileum of guinea-pig; test: Test for antihistaminergic effects on the isolated ileum of guinea-pig (histamine contraction, in vitro); parameters: species or system guinea-pig (male Hartly-strain); details: Cavia porcellus, 0.05 h; depressing ratio of 80% or more of histamine contraction; read-out: Antihistaminergic activity: MED
Description: Male Hartly-strain guinea-pigs weighing about 250 g are killed and the abdomen is opened. The part (2-3 cm in length) of the ileum 10 cm away from the caecum to the pylorus is cut off as a preparation. The preparation is suspended with serre-fine in a Magnus bath containing 10 ml of Tyrode's solution at 32±1° C. under an air bubble. The contraction of the ileum is recorded on Kymograph through hebel when 0.1 ml of acetylcholine at a concentration of 10^-3 g/ml is added to the Tyrode's solution.
On the other hand, 3 minutes after administration of the test compounds, the same procedure as mentioned above is carried out to record the contraction.
In this test, 0.1 ml of histamine at a concentration of 5×10^-3 g/l is used.

| SMILES | Acute toxicity: MLD (minimum lethal dose) (male dd-strain rats; ip) [mg/kg] | Acute toxicity: MLD (minimum lethal dose) (male dd-strain rats; po) [mg/kg] | minimal effective concentration [1] [µg/mL] | minimal effective concentration [2] [µg/mL] |
| --- | --- | --- | --- | --- |
| CCN(CC)CCNC1c2ccccc2COc2c(C)cccc21 (stereo not shown) [Compound 12, 4-methyl-11-{2-(diethylamino)ethyl}amino-6,11-dihydrodibenz[b,e]oxepin] | 100 | > 300 | 10 | – |
| Cc1ccc2c(c1)C(NN1CCN(C)CC1)c1ccccc1CO2 (stereo not shown) [Compound 29, 2-methyl-11-(4-methyl-1-piperazinyl)amino-6,11-dihydrodibenz[b,e]oxepin] | > 100 | > 300 | 50 | 10 |
| Fc1ccc(C(NC2c3ccccc3COc3ccc(F)cc32)c2ccc(F)cc2)cc1 (stereo not shown) [Compound 31, 2-fluoro-11-{bis-(4-fluorophenyl)methyl}amino-6,11-dihydrodibenz[b,e]oxepin] | > 100 | > 300 | 100 | – |
| Fc1ccc2c(c1)C(NCCOC(c1ccccc1)c1ccccc1)c1ccccc1CO2 (stereo not shown) [Compound 33, 2-fluoro-11-{2-(diphenylmethyloxy)ethyl}amino-6,11-dihydrodibenz[b,e]oxepin] | > 100 | > 300 | 100 | – |
| Fc1ccc2c(c1)C(NCCN(Cc1ccccc1)Cc1ccccc1)c1ccccc1CO2 (stereo not shown) [Compound 34, 2-fluoro-11-{2-(dibenzylamino)ethyl}amino-6,11-dihydrodibenz[b,e]oxepin] | > 100 | 300 | – | 10 |
| Cc1cccc2c1OCc1ccccc1C2N1CCN(CCO)CC1 (stereo not shown) [Compound 41, 4-methyl-11-{4-(2-hydroxyethyl)-1-piperazinyl}-6,11-dihydrodibenz[b,e]oxepin] | > 100 | > 300 | 100 | – |
| OCCN1CCN(C2c3ccccc3COc3c(-c4ccccc4)cccc32)CC1 (stereo not shown) [Compound 42, 4-phenyl-11-{4-(2-hydroxyethyl)-1-piperazinyl}-6,11-dihydrodibenz[b,e]oxepin] | > 100 | > 300 | 100 | – |
| Fc1ccc(C(c2ccc(F)cc2)N2CCN(C3c4ccccc4COc4ccc(F)cc43)CC2)cc1 (stereo not shown) [Compound 43, 2-fluoro-11-[4-{bis-(4-fluorophenyl)}methyl-1-piperazinyl]-6,11-dihydrodibenz[b,e]oxepin] | > 100 | > 300 | 100 | – |
| COc1ccc(CCNC2c3ccccc3COc3ccc(F)cc32)cc1OC (stereo not shown) [Compound 60, 2-fluoro-11-{2-(3,4-dimethoxyphenyl)ethyl}amino-6,11-dihydrodibenz[b,e]oxepin] | > 100 | > 300 | – | 10 |
| CCc1ccc2c(c1)C(Nc1cccc3ncccc13)c1ccccc1CO2 (stereo not shown) [Compound 61, 2-ethyl-11-(5-quinolyl)amino-6,11-dihydrodibenz[b,e]oxepin] | > 100 | > 300 | – | 10 |
| Cc1ccc2c(c1)C(Nc1ccc3[nH]ccc3c1)c1ccccc1CO2 (stereo not shown) [Compound 62, 2-methyl-11-(5-indolyl)amino-6,11-dihydrodibenz[b,e]oxepin] | > 100 | > 300 | 50 | – |
| Cc1ccc2c(c1)C(N1CCC3(CC1)OCCO3)c1ccccc1CO2 (stereo not shown) [Compound 65, 2-methyl-11-(1',3'-dioxoran-2-'spiro-4-piperidino)-6,11-dihydrodibenz[b,e]oxepin] | > 100 | > 300 | – | 10 |
